Assay results taken from patent US10537626B2, “HSP70-derived peptide, pharmaceutical composition for treating or preventing cancer using same, immunity inducer, and method for producing antigen presenting cell” (Cytlimic Inc., priority 2014, dated 2020).
Ends that are not written are not given here.

Assays:
[1] = target: HLA-A*24:02 molecule (Homo sapiens, UniProt P04439, D101N/D140Y/D185E/E176V/E190D/F33S/G103R/G107R/I119L/I121M/I306V/K335N/L105A/L180Q/L300P/N151K/N90K/Q86E/Q94H/R106L/R138H/R89G/T104I/T345S/V100E/W191G/Y123F); experiment: Binding experiment of peptide to HLA-A*24:02 molecule (C1R-A24 cells, flow cytometry); conditions: for Binding Experiment Data To A*24:02: C1R-A24 cells, on ice 4 hours, negative values as printed (apparently log Kd)
Protocol: The binding capacity of each peptide to the HLA-A*24:02 molecule as the product of HLA-A*24:02 gene was measured using C1R-A24 cells expressing the HLA-A*24:02 molecule (the cells prepared by Prof. Masafumi Takeguchi, Kumamoto University were gifted by Assoc. Prof. Masaki Yasukawa, Ehime University with permission).
First, C1R-A24 cells were exposed to acidic conditions of pH 3.3 for 30 seconds to dissociate and remove endogenous peptides which were originally bound to the HLA-A*24:02 molecule and a light chain, β2m, which was commonly associated with HLA class I molecules. After neutralization, purified β2m was added to the C1R-A24 cells, which was then added to peptide dilution series. The mixtures were each then incubated on ice for 4 hours. The 3-molecule assembly (MHC-pep) consisting of the HLA-A*24:02 molecule, the peptide, and β2 m which had been reassociated during the incubation was stained with a fluorescent labeled monoclonal antibody, 17A12, recognizing the assembly.
Subsequently, the number of MHC-pep's per C1R-A24 cell (which is proportional to the fluorescent intensity of the above fluorescent antibody) was quantitatively measured using a fluorescent cell analyzer, FACScan (Becton, Dickinson and Company). The binding dissociation constant, Kd value, between the HLA-A*24:02 molecule and the peptide was calculated from the average fluorescent intensity per cell using a method as published in a paper (Udaka et al., Immunogenetics, 51, 816-828, 2000) by the present inventor.

[2] = target: HLA-A*02:01 molecule (Homo sapiens, UniProt P04439, D140Y/D185E/D98H/E176V/E277Q/G131W/G231S/I119V/I121R/I166T/I218V/L300P/L318F/N151K/N90K/P208A/P217A/Q86G/Q94H/R138H/R169H/T345S); experiment: Binding experiment of peptide to HLA-A*02:01 molecule (T2 cells, flow cytometry); conditions: for Binding Experiment Data To A*02:01: T2 cells, 37° C. 4 hours, negative values as printed (apparently log Kd)
Protocol: T2 cells and purified β2m were added to stepwise dilution series of a peptide whose binding capacity was to be measured, which was then incubated at 37° C. for 4 hours.
Thereafter, the amount of fluorescence per cell was measured using a flow cytometer, and the dissociation constant, Kd value, was calculated using a method as published in a paper by the present inventor (Udaka et al., Immunogenetics, 51, 816-828, 2000).

[3] = target: T1, HLA-A*02:06 molecule (Homo sapiens, UniProt P04439, D140Y/D185E/D98H/E176V/E277Q/F33Y/G131W/G231S/I119V/I121R/I166T/I218V/L300P/L318F/N151K/N90K/P208A/P217A/Q86G/Q94H/R138H/R169H/T345S); experiment: Binding experiment of peptide to HLA-A*02:06 molecule (RA2.6 cells, flow cytometry); conditions: for Binding Experiment Data To A*02:06: RA2.6 cells, negative values as printed (apparently log Kd)
T1 construct: expressed in transfected cells; host or cells: RA2.6 cells (mouse TAP-deficient RMAS transfected with HLA-A*02:06 cDNA, Kochi University)
Protocol: The binding capacity of each peptide to the HLA-A*02:06 molecule as the product of HLA-A*02:06 gene was measured using RA2.6 cells (a cell line newly prepared at Kochi University) in which cDNA of the HLA-A*02:06 gene was introduced into RMAS as a mouse TAP (transporter associated with antigen processing)-deficient cell line.
First, the RA2.6 cells were cultured overnight at 26° C. to accumulate the HLA-A*02:06 molecules unbound to the peptide on the cell surface. Any of peptide dilution series was added thereto for binding at 26° C. for 60 minutes.
Subsequently, the mixture was cultured at 35° C. for 4 hours, resulting in the denaturation of the empty HLA-A*02:06 molecule unbound to the peptide and the loss of its steric structure. A fluorescent labeled monoclonal antibody, BB7.2, specifically recognizing a peptide-bound HLA-A*02:06 molecule, was added thereto, which was then incubated on ice for 20 minutes to stain the cells.

[4] = test system: CD8T cells from liver cancer patients; experiment: Immunity induction test of peptide (IFN-γ ELISPOT / ELISA, peptide-stimulated dendritic cells cocultured with CD8T cells); format: cell-based, human
Protocol: Monocytes were separated from the peripheral blood collected from a hepatocellular cancer patient according to a leukapheresis method. The separated monocytes were cultured for 6 days under addition of 800 U/ml GM-CSF and 500 U/ml IL-4. In addition, 300 U/ml TNF-α was added to the culture solution, which was then cultured for 4 days to induce mature dendritic cells. Subsequently, HSP70 mRNA was introduced thereinto by an electroporation method and thereby dendritic cells having presented an HSP70-derived antigen peptide were prepared.
Dendritic cells into which 1×10^7, 2×10^7, or 3×10^7 HSP70 mRNAs were introduced (HSP70-dendritic cells) were administered into the thigh of the hepatocellular cancer patient by subcutaneous injection (HSP70 dendritic cell therapy). The subcutaneous administration of the HSP70-dendritic cells prepared by the same method was repeated every 3 weeks. […]
Using CD8 Negative Selection Kit (from Miltenyi Biotec), CD8T cells were separated from the medium and counted. […]
A culture supernatant at day 7 after coculture of T cells with dendritic cells pulsed with each of the above peptides was diluted to the 4 levels of ×1, ×5, ×25, and ×125 to identify the dilution level falling within the limit of measurement using Human IFN-γ ELISA MAX Deluxe Set (from BioLegend Inc.). Thereafter, each sample was measured 3 times at the identified dilution level. […]

Sequence | Binding Experiment Data To A*24:02 [1] | Binding Experiment Data To A*02:01 [2] | Binding Experiment Data To A*02:06 [3] | also measured
AMTKDNNLL [SEQ ID NO: 9] | −5.492 | −5.56 | −4.276 | 
AQIHDLVLV [SEQ ID NO: 12] |  | −6.148 |  | 
FYPEEISSM [SEQ ID NO: 3] | −7.664 |  |  | 
GVPQIEVTF [SEQ ID NO: 1] | −6.451 |  | −5.13 | 
ITRARFEEL [SEQ ID NO: 10] |  | −4.326 | −5.58 | 
KLLQDFFNG [SEQ ID NO: 4] |  | −4.959 | −5.268 | 
LLLDVAPLS [SEQ ID NO: 8] |  | −6.06 | −6.171 | 
MVLTKMKEI [SEQ ID NO: 6] |  | −4.586 | −5.533 | 
NLLGRFELS [SEQ ID NO: 11] |  | −4.56 | −5.175 | 
NQPGVLIQV [SEQ ID NO: 14] |  | −5.91 | −6.417 | 
SVTNAVITV [SEQ ID NO: 15] | −4.37 | −4.762 | −5.594 | 
VLVGGSTRI [SEQ ID NO: 5] | −6.173 | −4.86 | −5.07 | 
YAFNMKSAV [SEQ ID NO: 13] |  | −5.091 | −5.021 | 
YGAAVQAAI [SEQ ID NO: 7] | −5.502 | −4.904 | −5.372 | binding to HLA-A*24:02 molecule (in words) [1]: strongly binds; binding to HLA-A*02:01 molecule (in words) [2]: strongly binds; binding to HLA-A*02:06 molecule (in words) [3]: strongly binds; immunogenicity (in words) [4]: high immunogenicity
